Results: patent publication US20110312992A1, “Inhibitors of C-Kit and Uses Thereof” (priority 2006, published 2011)
Structures can show the parent of a compound that is named as a salt. One block for each compound: values may come before it.

Columns and labels:
OCI/AML3 [1] = assay: MTT-based cell proliferation/toxicity assay, OCI/AML3; parameters: species or system human; settings: for ability to reduce cell line (dose response): OCI/AML3, FIG. 25
Source text: (§1) An MTT- (3,(4,5-dimethylthiazol-2-yl)-5-(3-carboxymethoxyphenyl)-2-(4-sulfophenyl)-2H-tetrazolium) based cell proliferation/toxicity assay system (Promega, Madison, Wis.) using cell lines, including the AML cell lines OCIM2 and OCI/AML3, was used to evaluate the effectiveness of the compounds as set forth herein in inhibition of c-Kit cellular activity.
(§2) AML cell lines OCIM2 and OCI/AML3 are human erythroleukemia lines and were provided by M. D. Minden, (Ontario Cancer Institute, Toronto, ON, Canada and as referenced in: Papayannopoulou et al., Blood (1988) 72:1029-1038; Wang et al., Leukemia (1989) 3: 236-249). Cells were maintained in RPMI 1640 culture medium (GIBCO, Grand Island, N.Y.) supplemented with 10% FCS (Flow Laboratories, McLean, Va.) and split twice weekly.
(§3) Briefly, cells were harvested at the logarithmic phase of their growth. They were then washed twice in RPMI 1640 containing 10% FCS and counted in a hemocytometer, and their viability was determined using 0.1% trypan blue staining. Equal numbers of viable cells (5×10^4 cells per well) were incubated in RPMI 1640 medium supplemented with 10% FCS alone or with the candidate drugs at increasing concentrations; the incubations were continued for 72 h in 96-well flat-bottomed plates (Linbro; Flow Laboratories, McLean, Va.) at 37° C. in a humidified 5% CO2 atmosphere. After incubation, 20 μl of CellTiter96 One Solution Reagent (Promega) was added to each well. The plates were then incubated for an additional 60 min at 37° C. in a humidified 5% CO2 atmosphere. Immediately after incubation, absorbance was read using a 96-well plate reader at a wavelength of 490 nm. Each data point was determined six times before analysis.
(§4) While OCIM2 and OCI/AML3 are both AML cell lines, c-Kit is expressed to a much higher degree in the OCI/AML3 line versus OCIM2, as determined by the responsiveness to stem cell factor (SCF), which mediates c-Kit receptor dimerization, activation, and autophosphorylation (Blume-Jensen, et al., (1991) EMBO Journal 10, 4121-8).

c-Kit = c-Kit (Homo sapiens, UniProt P10721); assay: c-Kit kinase enzymatic assay (tyrosine phosphorylation, UpState protocol); assay type: biochemical; settings: FIG. 5
Sequence of c-Kit (P10721 26-976): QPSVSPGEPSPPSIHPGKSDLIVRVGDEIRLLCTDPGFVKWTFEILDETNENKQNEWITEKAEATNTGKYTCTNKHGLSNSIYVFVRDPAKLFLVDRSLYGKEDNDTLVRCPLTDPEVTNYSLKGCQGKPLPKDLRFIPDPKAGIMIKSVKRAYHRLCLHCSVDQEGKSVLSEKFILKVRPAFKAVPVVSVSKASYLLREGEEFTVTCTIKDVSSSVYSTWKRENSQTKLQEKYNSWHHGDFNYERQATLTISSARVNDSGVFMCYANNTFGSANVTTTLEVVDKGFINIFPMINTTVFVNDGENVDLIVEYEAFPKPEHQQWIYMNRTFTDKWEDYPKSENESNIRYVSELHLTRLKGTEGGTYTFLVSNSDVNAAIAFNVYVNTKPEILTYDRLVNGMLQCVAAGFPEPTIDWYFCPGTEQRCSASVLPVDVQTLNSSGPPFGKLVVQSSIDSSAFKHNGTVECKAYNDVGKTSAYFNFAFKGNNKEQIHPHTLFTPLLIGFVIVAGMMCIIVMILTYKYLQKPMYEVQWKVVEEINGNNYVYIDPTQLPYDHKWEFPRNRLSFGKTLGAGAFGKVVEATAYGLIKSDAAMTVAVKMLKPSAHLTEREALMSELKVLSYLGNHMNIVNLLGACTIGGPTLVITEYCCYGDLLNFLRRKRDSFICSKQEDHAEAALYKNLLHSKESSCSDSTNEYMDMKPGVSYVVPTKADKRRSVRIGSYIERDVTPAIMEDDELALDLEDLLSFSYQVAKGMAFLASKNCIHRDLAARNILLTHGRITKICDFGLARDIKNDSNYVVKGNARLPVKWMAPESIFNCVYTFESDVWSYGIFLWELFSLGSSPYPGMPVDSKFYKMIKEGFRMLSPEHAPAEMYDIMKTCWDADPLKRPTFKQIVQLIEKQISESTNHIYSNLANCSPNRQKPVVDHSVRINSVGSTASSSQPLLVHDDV
Experimental: IC50 values were determined for compounds of Examples 1, 10, 12 and 13 using a c-Kit kinase enzymatic assay. Phosphorylation of tyrosine was measured using a kinase assay protocol as provided by UpState Cell Signaling Solutions (Lake Placid, N.Y.). […] The results of the kinase assays validate the modeling and assessment of the structure/activity relationship data.

OCIM2 = assay: MTT-based cell proliferation/toxicity assay, OCIM2; parameters: species or system human
Source text: as §1, §2, §3, §4

HCM1.2 cell line = assay: Systemic mastocytosis cell line with mutated c-Kit (position 816); assay type: cell-based; settings: HCM1.2 (mutated c-Kit, position 816) vs HCM1.1 (wild-type), FIG. 12 and 13
Experimental: The effect of compound 1-[3-(4-fluoro)-1H-pyrazolo[3,4-b]pyridin-6-yl]-3,5-dimethoxy]benzene on two systemic mastocytosis cell lines with unmutated (wild-type) c-Kit (HCM1.1 cell line) and a cell line with mutated c-Kit (mutation at position 816) (HCM1.2 cell line) was also determined. Cell lines were obtained from Dr. Verstovsek (Leuk Res. 2006 Jun. 22, online prepublication).

OCI/AML3 [2] = assay: Colony-forming cell proliferation, OCI/AML3; assay type: cell-based, human; settings: OCI/AML3, FIG. 18
OCI/AML3 [3] = assay: Cell cycle analysis in OCI/AML3; assay type: cell-based, human; settings: OCI/AML3, FIG. 15
AML5 = assay: Inhibition of cell proliferation of AML1-AML6 in the presence of SCF; assay type: cell-based; settings: AML5 among AML1-AML6, in the presence of SCF, FIG. 23
[4] = Inhibition of cell proliferation in the absence and presence of SCF (FIG. 22); assay type: cell-based; settings: absence vs presence of externally introduced SCF

IC50 (c-Kit): ~0.095 µM
Structure (SMILES): COc1ccc(-c2n[nH]c3nc(-c4cccc(NC(C)=O)c4)ccc23)cc1 [Example 1, 3-{(4-Methyloxyphenyl)-1H-pyrazolo[4,3-b]pyridin-6-yl}acetanilide]
EC50 (OCI/AML3 [1]; Homo sapiens, OCI-AML-3, cell viability, OCI/AML3, 72 h, FIG. 6): ~0.1 µM | ability to reduce cell line (dose response) (OCI/AML3 [1]): same effective ability to reduce OCI/AML3 cell line

Structure (SMILES): CC(=O)Nc1cccc(-c2ccc3c(-c4ccc(F)cc4)n[nH]c3n2)c1 [Example 3, 3-[3-(4-Fluorophenyl)-1H-pyrazolo[3,4-b]pyridin-6-yl]acetanilide]
ability to reduce cell line (dose response) (OCI/AML3 [1]): same effective ability to reduce OCI/AML3 cell line

IC50 (c-Kit): > 100 µM
Structure (SMILES): COc1cc(OC)cc(-c2ccc3c(-c4ccc(F)cc4)n[nH]c3n2)c1 [Example 10]
sensitivity of proliferation (OCIM2; OCIM2, FIG. 16): less sensitive | proliferation of SCF-stimulated cells (OCIM2; OCIM2 with and without 50 ng/mL SCF, FIG. 9): inhibiting the proliferation | selectivity between mastocytosis cell lines (HCM1.2 cell line): selectivity for the cell line containing mutated c-Kit | colony-forming cell proliferation (OCI/AML3 [2]): inhibits | sensitivity of proliferation (OCI/AML3 [1]; OCI/AML3, FIG. 16): quite sensitive | comparison with BMS-354825 and Gleevec (OCI/AML3 [1]; percent of control, FIG. 24): favorable comparison | cell cycle effect (OCI/AML3 [3]): causes the accumulation of OCI/AML3 in Sub-G0 phase | inhibition of cell proliferation (AML5): less effective inhibition | effect of SCF on inhibition of cell proliferation [4]: enhanced by the presence of externally introduced SCF

IC50 (c-Kit): ~1.2 µM
Structure (SMILES): COc1ccc(-c2n[nH]c3nc(-c4cc(OC)cc(OC)c4)ccc23)cc1 [Example 12]
ability to reduce cell line (dose response) (OCI/AML3 [1]): same effective ability to reduce OCI/AML3 cell line

IC50 (c-Kit): ~3.6 µM
Structure (SMILES): CCOC(=O)c1ccc(-c2n[nH]c3nc(-c4ccc(C(=O)NCCN(C)C)cc4)ccc23)cc1 [Example 13]
ability to reduce cell line (dose response) (OCI/AML3 [1]): same effective ability to reduce OCI/AML3 cell line

Structure (SMILES): Cc1ccc(NC(=O)c2ccc(CN3CCN(C)CC3)cc2)cc1Nc1nccc(-c2cccnc2)n1 [imatinib mesylate, reference compound]
response of cell line to prior art compound (OCIM2; OCIM2 uninduced, FIG. 10): resistant | response of cell line to prior art compound (OCI/AML3 [1]; OCI-AML3 expressing c-Kit, FIG. 6 / FIG. 10): resistant
